Measured values taken from ChEMBL document CHEMBL5523739, “NN1213 - A Potent, Long-Acting, and Selective Analog of Human Amylin” (J Med Chem, 2024).

Experiments:
Rattus norvegicus [1] = organism: Rattus norvegicus; assay: Selectivity ratio of EC50 for rat CTR expressed in Baby hamster kidney cells to EC50 for rat AMY3R complex of CTR/RAMP3 expressed in Baby hamster kidney cells; format: cell-based
Rattus norvegicus [2] = organism: Rattus norvegicus; assay: Selectivity ratio of IC50 for rat CTR expressed in Baby hamster kidney cell membrane to IC50 for rat AMY3R complex of CTR/RAMP3 expressed in Baby hamster kidney cell membrane; format: cell-based
Homo sapiens [3] = organism: Homo sapiens; assay: Selectivity ratio of IC50 for human CTR expressed in Baby hamster kidney cell membrane to IC50 for human AMY3R complex of CTR/RAMP3 expressed in Baby hamster kidney cell membrane; format: cell-based
Homo sapiens [4] = organism: Homo sapiens; assay: Selectivity ratio of EC50 for human CTR expressed in Baby hamster kidney cells to EC50 for human AMY3R complex of CTR/RAMP3 expressed in Baby hamster kidney cells; format: cell-based
Rattus norvegicus [5] = assay: Appetite suppressing activity in rat assessed as reduction in food intake at 30 nmol/kg, sc measured upto 24 hrs relative to control; format: functional; parameters: scale not given: the % may be the effect or the level left
Rattus norvegicus [6] = assay: Appetite suppressing activity in rat assessed as reduction in food intake at 30 nmol/kg, sc measured for 24 to 48 hrs relative to control; format: functional; parameters: scale not given: the % may be the effect or the level left; conditions: time 24-48 hrs

Row | SMILES | Ratio EC50 (Rattus norvegicus [1]) | Ratio IC50 (Rattus norvegicus [2]) | Ratio IC50 (Homo sapiens [3]) | Ratio EC50 (Homo sapiens [4]) | Activity (Rattus norvegicus [5]) [%] | Activity (Rattus norvegicus [6]) [%]
1 | CC[C@H](C)[C@H](NC(=O)[C@H](C)NC(=O)CNC(=O)[C@H](Cc1ccccc1)NC(=O)[C@H](CC(N)=O)NC(=O)[C@@H]1CCCN1C(=O)[C@H](CO)NC(=O)[C@H](CO)NC(=O)[C@H](Cc1c[nH]cn1)NC(=O)[C@H](CCCNC(=N)N)NC(=O)[C@H](CC(C)C)NC(=O)[C@H](Cc1ccccc1)NC(=O)[C@H](CC(=O)O)NC(=O)[C@H](C)NC(=O)[C@H](CC(C)C)NC(=O)[C@H](CCCNC(=N)N)NC(=O)[C@H](CCC(N)=O)NC(=O)[C@@H](NC(=O)[C@H](C)NC(=O)[C@@H]1CSSC[C@H](NC(=O)[C@@H](N)CCCCN)C(=O)N[C@@H](CC(N)=O)C(=O)N[C@@H]([C@@H](C)O)C(=O)N[C@@H](C)C(=O)N[C@@H]([C@@H](C)O)C(=O)N1)[C@@H](C)O)C(=O)N1CCC[C@H]1C(=O)N[C@@H](CO)C(=O)N[C@H](CO)C(=O)N[C@H](C(=O)N[C@@H](CC(N)=O)C(=O)N[C@H](C(=O)NCC(=O)N[C@@H](CO)C(=O)N[C@@H](CC(=O)O)C(=O)N[C@H](C(=O)N[C@@H](Cc1ccc(O)cc1)C(N)=O)[C@@H](C)O)C(C)C)[C@@H](C)O | 1340 | 447 | 55 | 15 | – | –
2 | CC[C@H](C)[C@H](NC(=O)[C@H](C)NC(=O)CNC(=O)[C@H](Cc1ccccc1)NC(=O)[C@H](CC(N)=O)NC(=O)[C@@H]1CCCN1C(=O)[C@H](CO)NC(=O)[C@H](CO)NC(=O)[C@H](Cc1c[nH]cn1)NC(=O)[C@H](CCCNC(=N)N)NC(=O)[C@H](CC(C)C)NC(=O)[C@H](Cc1ccccc1)NC(=O)[C@H](CC(=O)O)NC(=O)[C@H](C)NC(=O)[C@H](CC(C)C)NC(=O)[C@H](CCCNC(=N)N)NC(=O)[C@H](CCC(N)=O)NC(=O)[C@@H](NC(=O)[C@H](C)NC(=O)[C@@H]1CSSC[C@H](NC(=O)[C@@H](N)CCCCN)C(=O)N[C@@H](CC(N)=O)C(=O)N[C@@H]([C@@H](C)O)C(=O)N[C@@H](C)C(=O)N[C@@H]([C@@H](C)O)C(=O)N1)[C@@H](C)O)C(=O)N1CCC[C@H]1C(=O)N[C@@H](CO)C(=O)N[C@@H](CO)C(=O)N[C@H](C(=O)N[C@@H](CC(N)=O)C(=O)N[C@H](C(=O)NCC(=O)N[C@@H](CO)C(=O)N[C@@H](CC(=O)O)C(=O)N[C@H](C(=O)N[C@@H](Cc1ccc(O)cc1)C(N)=O)[C@@H](C)O)C(C)C)[C@@H](C)O | – | – | – | – | 72 | 62
